Reference: patent US5691373A, “Nonpeptide endothelin antagonists I” (Warner-Lambert Company, priority 1995, dated 1997)

Key:
human ETB receptor = biological target: T1, human ETB receptor (Homo sapiens, UniProt P24530); assay: ERBA-B: [125I]-ET-1 binding, recombinant human ETB receptor expressed in CHO-K1 cells; conditions: human cloned ETB receptor, read-out: ERBA-B IC50, human cloned receptor data
T1 construct: expressed in transfected cells; host or cells: CHO-K1 cells, pRc-CMW (so in the source) expression vector, electroporation; membranes used
T1 sequence (P24530 27-442): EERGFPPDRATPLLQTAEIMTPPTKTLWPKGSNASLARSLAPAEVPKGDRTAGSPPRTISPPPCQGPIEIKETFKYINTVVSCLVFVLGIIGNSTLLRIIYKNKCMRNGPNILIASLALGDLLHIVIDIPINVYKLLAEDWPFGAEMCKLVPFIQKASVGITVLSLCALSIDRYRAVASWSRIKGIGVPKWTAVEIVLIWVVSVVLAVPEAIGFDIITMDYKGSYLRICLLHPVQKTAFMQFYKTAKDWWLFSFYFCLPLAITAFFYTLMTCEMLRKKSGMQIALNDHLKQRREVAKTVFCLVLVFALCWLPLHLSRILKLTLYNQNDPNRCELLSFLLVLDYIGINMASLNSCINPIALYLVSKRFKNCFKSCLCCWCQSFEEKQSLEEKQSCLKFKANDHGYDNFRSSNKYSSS
Experimental: Count filters for radioactivity in gamma counter.
The above process has also been modified by using human recombinant CHO-K1 cells.
The tissue used for human ETB was recombinant human ETB receptor expressed in CHO-K1 cells (chinese hamster ovary cells). The gene for human ETB receptor was cloned and inserted into the pRc-CMW expression vector, then transfected into CHO-K1 cells by electroporation. For binding assays, membranes (0.7 mg protein) of CHO-K1 cells expressing recombinant human ETB receptor were used.
^d Human cloned receptor data

ETA = biological target: T2, ETA (Oryctolagus cuniculus, UniProt A5A8K3); conditions: ERBA-A IC50, [125I]-ET-1, rabbit renal artery vascular smooth muscle cells
T2 sequence (A5A8K3 21-427): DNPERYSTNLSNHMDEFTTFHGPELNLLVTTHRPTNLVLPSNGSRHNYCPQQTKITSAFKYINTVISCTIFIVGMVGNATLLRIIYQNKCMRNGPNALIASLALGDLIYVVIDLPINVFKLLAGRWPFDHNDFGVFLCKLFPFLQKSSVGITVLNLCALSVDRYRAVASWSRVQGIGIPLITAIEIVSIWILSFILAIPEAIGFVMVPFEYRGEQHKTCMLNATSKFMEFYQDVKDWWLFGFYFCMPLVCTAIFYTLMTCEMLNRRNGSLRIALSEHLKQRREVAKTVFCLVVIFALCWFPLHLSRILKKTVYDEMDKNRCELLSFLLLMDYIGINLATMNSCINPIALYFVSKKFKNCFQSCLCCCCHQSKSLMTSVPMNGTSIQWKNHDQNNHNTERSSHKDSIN
Experimental: The cells used were rabbit renal artery vascular smooth muscle cells grown in a 48-well dish (1 cm^2) (confluent cells).
The growth media was Dulbecco's Modified Eagles/Ham's F12 which contained 10% fetal bovine serum and antibiotics (penicillin/streptomycin/fungizone).
Second, remove the assay buffers, place the dish on ice, and add 150 μL of cold assay buffer described above to each well. […] Next, place dish in a 37° C., water bath for about 2 hours and gently agitate the dish every 15 minutes. Discard the radioactive incubation mixture in the sink and wash wells 3 times with 1 mL of cold phosphate buffered saline.

Structure (SMILES)	IC50 (human ETB receptor) [nM]	IC50 (ETA) [nM]
COc1ccc(C2(O)OC(=O)C(c3ccc4c(c3)OCO4)=C2Cc2cccc(OC)c2OC)cc1 (stereo not shown) [Example 308, 3-Benzo[1,3]dioxol-5-yl-4-(2,3-dimethoxy-benzyl)-5-hydroxy-5-(4-methoxy-phenyl)-5H-furan-2-one]	2200	16
COc1ccc(C2(O)OC(=O)C(c3ccc4c(c3)OCO4)=C2Cc2ccccc2Oc2ccccc2)cc1 (stereo not shown) [Example 313, 3-Benzo[1,3]dioxol-5-yl-5-hydroxy-5-(4-methoxy-phenyl)-4-(2-phenoxy-benzyl) -5H-furan-2-one]	> 2500	99
COc1ccc(C2(O)OC(=O)C(c3ccc4c(c3)OCO4)=C2CC2CCCC2)cc1 (stereo not shown) [Example 314, 3-Benzo[1,3]dioxol-5-yl-4-cyclopentylmethyl-5-hydroxy-5-(4-methoxy-phenyl)-5H-furan-2-one]	640	8.4
CCC(CC)CC1=C(c2ccc3c(c2)OCO3)C(=O)OC1(O)c1ccc(OC)cc1 (stereo not shown) [Example 315, 3-Benzo[1,3]dioxol-5-yl-4-(2-ethyl-butyl)-5-hydroxy-5-(4-methoxy-phenyl)-5H -furan-2-one]	11800	40
COc1ccc(C2(O)OC(=O)C(c3ccc4c(c3)OCO4)=C2CC2CC=CCC2)cc1 (stereo not shown) [Example 316, 3-Benzo[1,3]dioxol-5-yl-4-cyclohex-3-enylmethyl-5-hydroxy-5-(4-methoxy-phenyl)-5H-furan-2-one]	690	8.1
COc1ccc(C2(O)OC(=O)C(c3ccc4c(c3)OCO4)=C2CC(c2ccccc2)C2CCCC2)cc1 (stereo not shown) [Example 319, 3-Benzo[1,3]dioxol-5-yl-4-(2-cyclopentyl-2-phenylethyl)-5-hydroxy-5-(4methoxy-phenyl)-5H-furan-2-one]	180	5.6
COc1ccc(C2(O)OC(=O)C(c3ccc4c(c3)OCO4)=C2Cc2ccccc2Oc2ccc3c(c2)OCO3)cc1 (stereo not shown) [Example 324, 3-Benzo[1,3]dioxol-5-yl-4-[2-(benzo[1,3]dioxol-5-yloxy)-benzyl]-5-hydroxy-5-(4-methoxy-phenyl)-5H-furan-2-one]	5300	8.4
CCCCCC1=C(c2ccc3c(c2)OCO3)C(=O)OC1(O)c1ccc(OC)cc1 (stereo not shown) [Example 340, 3-Benzo[1,3]dioxol-5-yl-5-hydroxy-5-(4-methoxy-phenyl)-4-pentyl-5H-furan-2-one]	630	69
COc1ccc(C2(O)OC(=O)C(c3ccc4c(c3)OCO4)=C2Cc2ccccc2)c(OCC(=O)O)c1 (stereo not shown) [Example 341, [2(4-Benzo[1,3]dioxol-5-yl-3-benzyl-2-hydroxy-5-oxo-2,5-dihydro-furan-2-yl) -5-methoxy-phenoxy]-acetic acid]	> 2500	80
C=CCOc1cc(OC)ccc1CC1=C(c2ccc3c(c2)OCO3)C(=O)OC1(O)c1ccc(OC)cc1 (stereo not shown) [Example 343, 4(2-Allyloxy-4-methoxy-benzyl)-3-benzo[1,3]dioxol-5-yl-5-hydroxy-5-(4-methoxy-phenyl)-5H-furan-2-one]	2200	10
COc1ccc(C(=O)/C(Cc2ccc(OC(C)C)cc2)=C(\C(=O)O)c2ccc3c(c2)OCO3)cc1 [Example 353, Sodium 2-Benzo[1,3]dioxol-5-yl-3-(4-isopropoxy-benzyl)-4-(4-methoxy-phenyl)-4-oxo-but-2-enoate]	> 250	4.4
COc1ccc(C(=O)/C(Cc2ccccc2)=C(\C(=O)O)c2ccc3c(c2)OCO3)cc1C [Example 355, Sodium 2-Benzo[1,3]dioxol-5-yl-3-benzyl-4-(4-methoxy-3-methyl-phenyl)-4-oxo-but-2-enoate]	1600	42
CCOC(=O)COc1cc(CC2=C(c3ccc4c(c3)OCO4)C(=O)OC2(O)c2ccc(OC)cc2)cc(OC)c1OC (stereo not shown) [Example 363, {5-[4-Benzo[1,3]dioxol-5-yl-2-hydroxy-2-(4-methoxyphenyl)-5-oxo-2,5-dihydro-furan-3-ylmethyl]-2,3-dimethoxy-phenoxy}-acetic acid ethyl ester]	1100	< 2.5
COc1ccc(C(=O)/C(Cc2ccc(NC(C)=O)cc2)=C(\C(=O)O)c2ccc3c(c2)OCO3)cc1 [Example 366, Potassium 3-(4-Acetylamino-benzyl)-2-benzo[1,3]dioxol-5-yl-4-(4-methoxy-phenyl)-4-oxo-but-2-enoate]	4900	7.3

Results, then the compound that gave them:

IC50 (human ETB receptor) [nM]	IC50 (ETA) [nM]	Structure (SMILES)
860	18	COc1ccc(C2(O)OC(=O)C(c3ccc4c(c3)OCO4)=C2Cc2ccc(OCc3ccccc3)c(OC)c2)cc1 (stereo not shown) [Example 309, 3-Benzo[1,3]dioxol-5-yl-4-(4-benzyloxy-3-methoxybenzyl)-5-hydroxy-5-(4-methoxy-phenyl)-5H-furan-2-one]
8800	540	COc1ccc(C2(O)OC(=O)C(c3ccc4c(c3)OCO4)=C2CC2=CC[C@H]3C[C@@H]2C3(C)C)cc1 (stereo partly shown) [Example 310, 3-Benzo[1,3]dioxol-5-yl-4-(6,6-dimethyl-bicyclo[3.1.1]-hept-2-en-2-ylmethyl)-5-hydroxy-5-(4-methoxy-phenyl)-5H-furan-2-one]
4000	3300	COc1ccc(C2(O)OC(=O)C(c3ccc4c(c3)OCO4)=C2CCC2CCCCC2)cc1 (stereo not shown) [Example 322, 3-Benzo-[1,3]dioxol-5-yl-4-(2-cyclohexyl-ethyl)-5-hydroxy-5-(4-methoxy-phenyl)-5H-furan-2-one]
> 25000	2500	C=CCOc1ccc(OC)cc1C1=C(Cc2ccccc2)C(O)(c2ccc(OC)cc2)OC1=O (stereo not shown) [Example 337, 3-(2-Allyloxy-5-methoxy-phenyl)-4-benzyl-5-hydroxy-5-(4-methoxy-phenyl)-5H-furan-2-one]
1300	240	COc1ccc(C2(O)OC(=O)C(c3ccc4c(c3)OCO4)=C2CC2CCCCCC2)cc1 (stereo not shown) [Example 339, 3-Benzo[1,3]dioxol-5-yl-4-cycloheptylmethyl-5-hydroxy-5-(4-methoxy-phenyl)-5H-furan-2-one]
> 25000	380	COc1ccc(C2(O)OC(=O)C(c3ccc4c(c3)OCO4)=C2Cc2ccc(OC)cc2OCC(=O)O)cc1 (stereo not shown) [Example 344, {2-[4-Benzo[1,3]dioxol-5-yl-2-hydroxy-2-(4-methoxy-phenyl)-5-oxo-2,5-dihydro-furan-3-ylmethyl]-5-methoxy-phenoxy}-acetic acid]
> 25000	7100	O=C(O)/C(=C(/Cc1ccccc1)C(=O)c1ccc(-n2ccnc2)cc1)c1ccc2c(c1)OCO2 [Example 348, 2-Butenoic acid, 2-(1,3-benzodioxol-5-yl)-4-[4-(1H-imidazol-1-yl)phenyl]4-oxo-3-(phenylmethyl)-]
25000	510	COc1ccc(C(=O)/C(Cc2ccc(C(=O)NCCN3CCOCC3)cc2)=C(\C(=O)O)c2ccc3c(c2)OCO3)cc1 [Example 349, 2-benzo[1,3]dioxol-5-yl-4-(4-methoxy-phenyl)-3-[4-(2-morpholin-4-yl-ethylcarbamoyl)-benzyl]-4-oxo-but-2-enoic acid]
1200	26	CCOC(=O)COc1c(OC)cc(CC2=C(c3ccc4c(c3)OCO4)C(=O)OC2(O)c2ccc(OC)cc2)cc1OC (stereo not shown) [Example 362, {4-[4-Benzo[1,3]dioxol-5-yl-2-hydroxy-2-(4-methoxyphenyl)-5-oxo-2,5-dihydro-furan-3-ylmethyl]-2,6-dimethoxy-phenoxy}-acetic acid ethyl ester]
